Data on 5 molecules can be found in ChEMBL document CHEMBL1201862, “PubChem BioAssay data set” (2004).

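Growth conditions: 96-well plates. Treatment: test compound, 48 hours, 5 concentrations. Analysis: linear interpolation between bracketing concentrations; unreached endpoints set to highest concentration. GI50 marks 50% less growth.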 The source made the active and inactive calls. No stated cut-off is given here; in the data, active = GI50 up to about 1.1 µM and inactive = higher.

Among the test systems are DU-145; ACHN; U-251; SW-620; MDA-MB-231; SK-MEL-2; HOP-62; OVCAR-3; MDA-MB-435; UACC-62; T47D; SNB-75; SK-OV-3; IGROV-1; NCI-H522; RPMI-8226; SK-MEL-5; PC-3; A549; SF-268.
Holding throughout (assay): inhibition of tumour cell growth, NCI panel, 48 h

On to `O=C(O)CCCCn1ccc(=O)[nH]c1=O`, for which the GI50 in the test with DU-145, in the test with ACHN, in the test with U-251, in the test with SW-620, in the test on MDA-MB-231 and with SK-MEL-2 was > 100 µM (inactive) each time. The GI50 in the test on HOP-62, with OVCAR-3, in the test on MDA-MB-435, in the test with UACC-62, in the test with T47D and with SNB-75 was > 100 µM (inactive) each time. Also, the GI50 in the test on SK-OV-3, in the test on IGROV-1, in the test with NCI-H522, in the test with RPMI-8226, with SK-MEL-5 and with PC-3 was > 100 µM (inactive) throughout. In addition, the GI50 with A549 and in the test on SF-268 was > 100 µM (inactive) each time.

Regarding `CC1(C)CC(=O)C(CCC(=O)/C=C/c2ccccc2)C(=O)C1`, the GI50 in the test with DU-145 was > 100 µM (inactive); in the test on ACHN, 98.9 µM (inactive); in the test on U-251, > 100 µM (inactive); in the test with SW-620, > 100 µM (inactive); in the test with MDA-MB-231, > 100 µM (inactive); in the test on SK-MEL-2 it was > 100 µM (inactive). In addition, the GI50 in the test on HOP-62, with OVCAR-3, in the test with MDA-MB-435, with UACC-62, in the test on T47D and with SNB-75 was > 100 µM (inactive) each time. The GI50 in the test on SK-OV-3, in the test on IGROV-1, in the test on NCI-H522, with RPMI-8226, in the test with SK-MEL-5 and in the test on PC-3 was > 100 µM (inactive) throughout. Moreover, the GI50 in the test on A549 and in the test with SF-268 was > 100 µM (inactive) throughout.

Consider `CCC(C#N)N(Cc1cccc(CN(C(C)=O)C(C#N)CC)c1)C(C)=O` (stereo not given), for which the GI50 was > 100 µM (inactive) in the test with DU-145; > 100 µM (inactive) in the test with ACHN; > 100 µM (inactive) in the test on U-251; > 100 µM (inactive) with SW-620; 46.6 µM (inactive) with MDA-MB-231; > 100 µM (inactive) in the test on SK-MEL-2. Also, the GI50 in the test with HOP-62 is > 100 µM (inactive); in the test on OVCAR-3, > 100 µM (inactive); with MDA-MB-435, > 100 µM (inactive); in the test with UACC-62, > 100 µM (inactive); in the test with T47D, 7.24 µM (inactive); in the test with SNB-75 it was 12 µM (inactive). Besides, the GI50 in the test on SK-OV-3, with IGROV-1, in the test on NCI-H522, in the test on RPMI-8226, in the test with SK-MEL-5 and in the test with PC-3 was > 100 µM (inactive) in each case. The GI50 in the test with A549 and with SF-268 was > 100 µM (inactive) each time.

Consider `COc1cc(C2S/C(=C/c3ccccc3)C(=O)N2c2ccccn2)cc(OC)c1OC` (stereo not given), for which the GI50 was 10.3 µM (inactive) in the test with DU-145; 10.5 µM (inactive) with ACHN; 10.2 µM (inactive) with U-251; 15.3 µM (inactive) with SW-620; 24.8 µM (inactive) in the test with MDA-MB-231; 30 µM (inactive) in the test on SK-MEL-2. Further, the GI50 is 18.6 µM (inactive) with HOP-62; 12.4 µM (inactive) in the test on OVCAR-3; 11.5 µM (inactive) with MDA-MB-435; 14.7 µM (inactive) with UACC-62; 7.35 µM (inactive) with T47D; 6.87 µM (inactive) in the test with SNB-75. In addition, the GI50 in the test on SK-OV-3 is 28.2 µM (inactive); in the test on IGROV-1, 11 µM (inactive); with NCI-H522 it was 7.18 µM (inactive); with RPMI-8226, 7.53 µM (inactive); in the test with SK-MEL-5 it was 20.2 µM (inactive); in the test on PC-3, 22.4 µM (inactive). Further, the GI50 with A549 is 18.5 µM (inactive); with SF-268, 15.2 µM (inactive).

Consider `COc1cc2c(/C=C3/C(=O)Nc4cccc(Cl)c43)c(Cl)[nH]c2cc1C`, for which the GI50 with DU-145 is 1.88 µM (inactive); in the test with ACHN it was 2.67 µM (inactive); in the test on U-251 it was 1.78 µM (inactive); with SW-620, 2.24 µM (inactive); with MDA-MB-231 it was 1.08 µM (active); with SK-MEL-2, 3.05 µM (inactive). Further, the GI50 in the test on HOP-62 is 2.15 µM (inactive); in the test on OVCAR-3, 1.6 µM (inactive); with MDA-MB-435, 1.57 µM (inactive); with UACC-62, 1.95 µM (inactive); in the test with T47D it was 1.43 µM (inactive); in the test on SNB-75, 1.44 µM (inactive). Also, the GI50 in the test with SK-OV-3 was 2.21 µM (inactive); in the test with IGROV-1 it was 1.59 µM (inactive); in the test on NCI-H522 it was 2.32 µM (inactive); with RPMI-8226, 1.93 µM (inactive); in the test on SK-MEL-5 it was 3.5 µM (inactive); with PC-3 it was 2.68 µM (inactive). Besides, the GI50 with A549 is 2.09 µM (inactive); in the test with SF-268 it was 3.8 µM (inactive).
